How the values were obtained:
Test in all cases: Test B pre-/postemergence plant response
Type in all cases: in vivo
[1] = test system: giant foxtail (Setaria faberii)
Outline: (§1)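 Visual injury, 0–100 scale (100 = complete control), rated against controls after 13 to 15 days in greenhouse. Pre-emergence: seeds in loam/sand soil, treated at planting. Post-emergence: 1- to 4-leaf plants (2 to 18 cm) in peat/vermiculite medium. Compounds formulated in non-phytotoxic solvent with surfactant.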

[2] = test system: green foxtail (Setaria viridis)
Outline: as §1

[3] = test system: large crabgrass (Digitaria sanguinalis)
Outline: as §1

kochia (Kochia scoparia) = conditions: Postemergence
Outline: as §1

[4] = test system: velvetleaf (Abutilon theophrasti)
Outline: as §1

[5] = test system: pigweed (Amaranthus retroflexus)
Outline: as §1

[6] = test system: johnsongrass (Sorghum halepense)
Outline: as §1

[7] = test system: downy bromegrass (Bromus tectorum)
Outline: as §1

[8] = test system: wheat (Triticum aestivum)
Outline: as §1

[9] = test system: lambsquarters (Chenopodium album)
Outline: as §1

[10] = test system: woolly cupgrass (Eriochloa villosa)
Outline: as §1

[11] = test system: goosegrass (Eleusine indica)
Outline: as §1

[12] = test system: yellow nutsedge (Cyperus esculentus)
Outline: as §1

[13] = Postemergence, 31 g ai/ha, 0 to 100 scale (0 no effect, 100 complete control)
[14] = Postemergence, 62 g ai/ha, scale 0 to 100 (0 no effect, 100 complete control)
[15] = Postemergence, 125 g ai/ha, scale 0 to 100 (0 no effect, 100 complete control)
[16] = Postemergence, 250 g ai/ha, scale 0 to 100 (0 no effect, 100 complete control), 13 to 15 days
[17] = Preemergence, 31 g ai/ha, scale 0 to 100 (0 no effect, 100 complete control)
[18] = Preemergence, 62 g ai/ha, scale 0 to 100 (0 no effect, 100 complete control)
[19] = Preemergence, 125 g ai/ha, scale 0 to 100, 0 no effect, 100 complete control
[20] = Preemergence, 250 g ai/ha, 0 to 100 scale

In the case of `CCc1ccc(-n2c(-c3ccccc3)ncc(C(=O)C3=C(O)CCCC3=O)c2=O)cc1` [Compound 219], the “Plant response rating, Foxtail, Giant” value [1, 13] is reported as 70, the “Plant response rating, Foxtail, Giant” value [1, 14] is reported as 70 and the “Plant response rating, Foxtail, Giant” value [1, 15] is reported as 80. For the same compound, the “Plant response rating, Foxtail, Giant” value [1, 16] was 95, the “Plant response rating, Foxtail, Giant” value [1, 17] was 0 and the “Plant response rating, Foxtail, Giant” value [1, 18] was 0. For the same compound, the “Plant response rating, Foxtail, Giant” value [1, 19] was 10, the “Foxtail, Giant plant response rating” value [1, 20] was 80 and the “Plant response rating, Foxtail, Green” value [2, 13] was 70. The “Plant response rating, Foxtail, Green” value [2, 14] was 80, the “Plant response rating, Foxtail, Green” value [2, 15] was 90 and the “Plant response rating, Foxtail, Green” value [2, 16] was 90. The “Plant response rating, Foxtail, Green” value [2, 17] was 20, the “Plant response rating, Foxtail, Green” value [2, 18] was 70 and the “Plant response rating, Foxtail, Green” value [2, 19] was 90. The “Foxtail, Green plant response rating” value [2, 20] was 100, the “Plant response rating, Crabgrass, Large” value [3, 13] was 90 and the “Plant response rating, Crabgrass, Large” value [3, 14] was 95. The “Plant response rating, Crabgrass, Large” value [3, 15] was 95, the “Plant response rating, Crabgrass, Large” value [3, 16] was 98 and the “Plant response rating, Crabgrass, Large” value [3, 17] was 10. For the same compound, the “Plant response rating, Crabgrass, Large” value [3, 18] was 98, the “Plant response rating, Crabgrass, Large” value [3, 19] was 100 and the “Crabgrass, Large plant response rating” value [3, 20] was 100. For the same compound, the “Plant response rating, Kochia” value (kochia (Kochia scoparia); 31 g ai/ha, 0 to 100 scale (0 no effect, 100 complete control)) was 80, the “Plant response rating, Kochia” value (kochia (Kochia scoparia); 62 g ai/ha, scale 0 to 100 (0 no effect, 100 complete control)) was 98 and the “Plant response rating, Kochia” value (kochia (Kochia scoparia); 125 g ai/ha, scale 0 to 100 (0 no effect, 100 complete control)) was 98. For the same compound, the “Plant response rating, Kochia” value (kochia (Kochia scoparia); 250 g ai/ha, scale 0 to 100 (0 no effect, 100 complete control), 13 to 15 days) was 100, the “Plant response rating, Velvetleaf” value [4, 13] was 85 and the “Plant response rating, Velvetleaf” value [4, 14] was 90. For the same compound, the “Plant response rating, Velvetleaf” value [4, 16] was 98, the “Plant response rating, Velvetleaf” value [4, 17] was 0 and the “Plant response rating, Velvetleaf” value [4, 18] was 75. For the same compound, the “Plant response rating, Velvetleaf” value [4, 19] was 90, the “Velvetleaf plant response rating” value [4, 20] was 95 and the “Plant response rating, Pigweed” value [5, 13] was 100. For the same compound, the “Plant response rating, Pigweed” value [5, 14] was 100, the “Plant response rating, Pigweed” value [5, 16] was 100 and the “Plant response rating, Pigweed” value [5, 17] was 100. The “Plant response rating, Pigweed” value [5, 18] was 100, the “Plant response rating, Pigweed” value [5, 19] was 100 and the “Pigweed plant response rating” value [5, 20] was 100. The “Plant response rating, Johnsongrass” value [6, 14] was 60, the “Plant response rating, Johnsongrass” value [6, 15] was 98 and the “Plant response rating, Johnsongrass” value [6, 16] was 100. The “Plant response rating, Johnsongrass” value [6, 17] was 0, the “Plant response rating, Johnsongrass” value [6, 18] was 15 and the “Plant response rating, Johnsongrass” value [6, 19] was 65. For the same compound, the “Johnsongrass plant response rating” value [6, 20] was 80, the “Plant response rating, Bromegrass, Downy” value [7, 13] was 45 and the “Plant response rating, Bromegrass, Downy” value [7, 14] was 50. The “Plant response rating, Bromegrass, Downy” value [7, 15] was 80, the “Plant response rating, Bromegrass, Downy” value [7, 16] was 80 and the “Plant response rating, Bromegrass, Downy” value [7, 17] was 0. For the same compound, the “Plant response rating, Bromegrass, Downy” value [7, 18] was 0, the “Plant response rating, Bromegrass, Downy” value [7, 19] was 10 and the “Bromegrass, Downy plant response rating” value [7, 20] was 20. For the same compound, the “Plant response rating, Wheat” value [8, 13] was 40, the “Plant response rating, Wheat” value [8, 14] was 50 and the “Plant response rating, Wheat” value [8, 16] was 50. The “Plant response rating, Wheat” value [8, 17] was 0, the “Plant response rating, Wheat” value [8, 18] was 0 and the “Plant response rating, Wheat” value [8, 19] was 0. The “Wheat plant response rating” value [8, 20] was 0, the “Plant response rating, Lambsquarters” value [9, 13] was 100 and the “Plant response rating, Lambsquarters” value [9, 14] was 100. The “Plant response rating, Lambsquarters” value [9, 15] was 100, the “Plant response rating, Lambsquarters” value [9, 16] was 100 and the “Plant response rating, Lambsquarters” value [9, 17] was 100. For the same compound, the “Plant response rating, Lambsquarters” value [9, 18] was 100, the “Plant response rating, Lambsquarters” value [9, 19] was 100 and the “Lambsquarters plant response rating” value [9, 20] was 100. For the same compound, the “Plant response rating, Cupgrass, Woolly” value [10, 13] was 85, the “Plant response rating, Cupgrass, Woolly” value [10, 14] was 85 and the “Plant response rating, Cupgrass, Woolly” value [10, 15] was 95. For the same compound, the “Plant response rating, Cupgrass, Woolly” value [10, 16] was 98, the “Plant response rating, Cupgrass, Woolly” value [10, 17] was 0 and the “Plant response rating, Cupgrass, Woolly” value [10, 18] was 10. For the same compound, the “Plant response rating, Cupgrass, Woolly” value [10, 19] was 20, the “Cupgrass, Woolly plant response rating” value [10, 20] was 80 and the “Plant response rating, Goosegrass” value [11, 13] was 90. The “Plant response rating, Goosegrass” value [11, 14] was 95, the “Plant response rating, Goosegrass” value [11, 15] was 95 and the “Plant response rating, Goosegrass” value [11, 16] was 95. For the same compound, the “Plant response rating, Goosegrass” value [11, 17] was 98, the “Plant response rating, Goosegrass” value [11, 18] was 100 and the “Plant response rating, Goosegrass” value [11, 19] was 100. The “Goosegrass plant response rating” value [11, 20] was 100, the “Plant response rating, Nutsedge, Yellow” value [12, 13] was 10 and the “Plant response rating, Nutsedge, Yellow” value [12, 14] was 55. For the same compound, the “Plant response rating, Nutsedge, Yellow” value [12, 15] was 70, the “Plant response rating, Nutsedge, Yellow” value [12, 16] was 85 and the “Plant response rating, Nutsedge, Yellow” value [12, 17] was 0. The “Plant response rating, Nutsedge, Yellow” value [12, 18] was 45, the “Plant response rating, Nutsedge, Yellow” value [12, 19] was 85 and the “Nutsedge, Yellow plant response rating” value [12, 20] was 90.

From US8952024B2, “Herbicidal pyrimidone derivatives” (E I du Pont de Nemours and Company, priority 2009, dated 2015)
